In brackets after ≈: the same amount, converted by molar mass.
Experiments:
Solubility by pH = type: physicochemical; conditions: stirred 12 hours
Experimental: 50 mL of pH 1 to 12 solution and tertiary purified water were taken precisely and placed in a 50 mL clear glass vial, and an excess amount (50 mg) of KR-67607 was weighed and added and stirred for 12 hours. Then, it was allowed to stand for 20 minutes to settle the undissolved excess of KR-67607, and the supernatant was taken and filtered through a 0.2 μm PVDF filter as a stock solution.
The standard was prepared by accurately weighing 15 mg of KR-67607, placing it in a 50 mL volumetric flask, using diluent (0.02 M potassium dihydrogen phosphate aqueous solution:acetonitrile=50:50 (v/v)) to completely dissolve/mark KR-67607, and filtering the liquid through a 0.45 μm PVDF filter as the standard.
The HPLC analysis conditions were as follows • Detector: ultraviolet-visible absorption spectrophotometer (measuring wavelength: 254 nm) • Column: 250×4.6 mm, 5μm, C18 packing column • Column temperature: 25±3° C. • Injection volume: 25 μL • Flow rate: 1 mL/min • Mobile Phase: Gradient

DBA/2 mice [1] = assay: Retinal electroretinogram in glaucoma mouse model; type: in vivo; conditions: after 8 weeks; right eye only; 0.3 log cd×s/m^2 stimulation; high-dose; transient
Experimental: […] was performed according to the manufacturer's instructions after mice were anesthetized by instilling 20 μl of paracaine eye drops 0.5% in both eyes. The electrodes were placed on the scalp, tail, and cornea, respectively, and a certain amount of monochromatic white light stimulation was applied to perform retinal electroretinography. The response value of the stimulated retina and the amplitude from the crest of the a-wave to the peak of the b-wave were measured and evaluated as an indicator of retinal function.
To determine the effect of KR-67607 on retinal dysfunction and optic nerve damage, the electroretinograms of mice in the study were measured at 4-week intervals for 16 weeks. The electroretinograms were quantified by analyzing responses obtained by exposing the left and right eyes of the mice to −0.9, 0.3, and 1.2 log cd×s/m^2 of light, respectively. […] Before drug administration, there was no significant difference in retinal electroretinograms between the control, drug, and positive control groups. […] This effect was only transient at week 8, and no significant difference was seen from week 12.

GFAP, TNFα and BAX mRNA = assay: RT-PCR of retinal tissue from ocular hypertension rabbits; type: in vivo, New Zealand White rabbit; conditions: after Example 33 dosing
Experimental: Following Example 33, in order to separate the sample (eyeball) to observe the glaucoma treatment effect on the drug in addition to the change in intraocular pressure caused by the drug administration, the eyeball was enucleated and about 0.2 mL of the aqueous humor was collected, and then the retina (including some choroid) was collected. The collected aqueous humor and retina were placed in 1.5 mL polypropylene tubes pre-marked with sample information, frozen in a deep freezer (approximately −80° C.) until analysis, and delivered to the test site for analysis.
RNA or proteins were extracted from the eyes and analyzed by RT-PCR and western blotting to compare the expression of genes and proteins that can confirm the glaucoma treatment effect or optic nerve protection effect.
RNA was extracted from the isolated retinal tissue and analyzed by RT-PCR to compare the expression of genes that can confirm the glaucoma treatment effect or retinal protection effect. The tissues were lysed using TrizolTM Reagent (Invitrogen, CA, US) to extract the soluble RNA, and the RNA was precipitated by adding isopropanol (100%; Sigma-aldrich, MO, US).
Subsequently, cDNA was synthesized from the isolated RNA using a cDNA synthesis kit (AccuPower RT Premix; Bioneer, KR) and used for RT-PCR. The primer information used for RT-PCR analysis is as follows.
The synthesized DNA strands were then analyzed after separation on a 1.5% agarose gel using gene-specific primers (FIG. 28).

[2] = test system: cynomolgus macaque model of glaucoma; assay: Intraocular pressure in cynomolgus macaque model of glaucoma (laser trabeculoplasty); type: in vivo; conditions: for maximum decrease of IOP, glaucomatous eye: 2 hours after instillation
Experimental: Three weeks before the first laser trabeculoplasty, IOP was measured via a tomometer (SPHPR-320-61), once per week for three weeks. The first laser trabeculoplasty was performed in one eye for each macaque. Two weeks later, laser trabeculoplasty was repeated in the same eye (Week 0).
One week after the second laser trabeculoplasty (Week 1), IOP was measured and retinal nerve fiber layer (RNFL) thickness was measured via optical coherence tomography (OCT; RS3000 Advance, Nidek Co. Ltd., Gamagoori, Japan) (SPHPR- 320-58). The day after group assignment, the eyes were instilled with either vehicle, KR-67607 or brimonidine twice a day. On Day 1, the effect of treatment on IOP over time was measured before treatment and 1, 2, 4, and 8 hrs. after instillation. At the same time, blood samples were obtained. From the effects of dosing observed on Day 1, it was determined that 2 hrs. was a reasonable time time-to-test following instillation for subsequent observations.
Intraocular pressures were obtained at Weeks 2, 3, 4, 5, 7 and 9. Optical coherence tomography and color fundus photography (CFP) were performed at Weeks 1, 3, 5, 7, and 9 (SPHPR-320-56).
Following measurements at Week 9, G3 macaques was randomized into two groups based on IOP, and the effect of KR-67607 (1.5 mg/mL, 3.0 mg/mL) on IOP was evaluated.

DBA/2 mice [3] = assay: Histology and immunostaining of retina and optic nerve head in glaucoma mouse model; conditions: after 16 weeks of drug treatment
Experimental: After drug administration was terminated, the mice's eyes were enucleated and tissues were analyzed (FIGS. 14 to 26).
The optic nerve papilla area was analyzed by H&E staining, Caspase-3, 9, and TUNEL staining in retinal tissue removed and fixed from eyes of mice after 16 weeks of drug treatment. […] To determine the degree of cell death in the damaged optic nerve papilla tissue, Caspase-3, 9 staining (FIGS. 15 and 16), an indicator of early apoptosis, and TUNEL staining (FIG. 17), an indicator of late apoptosis, were performed.

In the case of `CC1CN(CC(=O)NC2C3CC4CC2CC(C(N)=O)(C4)C3)S(=O)(=O)N(c2c(Cl)cc(C(F)(F)F)cc2Cl)C1` [KR-67607, (1s, 3R,4s,5S,7s)-4-(2-(6-(2,6-dichloro-4-(trifluoromethyl)phenyl)-4-methyl-1,1-dioxido-1,2,6-thiadiazinan-2-yl)acetamido)adamantane-1-carboxamide], the Solubility (Solubility by pH; Purified water) is reported as 18.83 µg/mL (≈ 31.5 µM), the Solubility (Solubility by pH; pH 1 solution) is reported as 47.83 µg/mL (≈ 80.1 µM) and the Solubility (Solubility by pH; pH 3 solution) is reported as 46.08 µg/mL (≈ 77.1 µM). It also gave a Solubility (Solubility by pH; pH 5 solution) of 42.52 µg/mL (≈ 71.2 µM), a Solubility (Solubility by pH; pH 6 solution) of 43.61 µg/mL (≈ 73 µM) and a Solubility (Solubility by pH; pH 7 solution) of 43.77 µg/mL (≈ 73.3 µM). For the same compound, the Solubility (Solubility by pH; pH 8 solution) was 41.95 µg/mL (≈ 70.2 µM), the Solubility (Solubility by pH; pH 9 solution) was 45.97 µg/mL (≈ 76.9 µM) and the Solubility (Solubility by pH; pH 10 solution) was 44.53 µg/mL (≈ 74.5 µM). For the same compound, the Solubility (Solubility by pH; pH 12 solution) was 55.32 µg/mL (≈ 92.6 µM), the “retinal electroretinograms compared to control group” value (DBA/2 mice [1]) was “significant increase” and the “mRNA expression level of BAX in retinal tissues” value (GFAP, TNFα and BAX mRNA) was “tended to decrease”. The “mRNA expression level of GFAP in retinal tissues” value (GFAP, TNFα and BAX mRNA) was “tended to decrease”, the “mRNA expression level of TNFa in retinal tissues” value (GFAP, TNFα and BAX mRNA) was “tended to decrease” and the “maximum decrease of IOP, contralateral normal eye” value ([2]; Day 1 dosing, 2 hours after dosing) was “did not decrease”. The “maximum decrease of IOP, glaucomatous eye” value ([2]; Day 1 dosing) was 9.2±4.1 mmHg, the “effect on IOP (Extra dosing)” value ([2]; KR-67607 1.5 mg/mL, after Week 9) was “did not affect” and the “maximum decrease of IOP (Extra dosing)” value ([2]; KR-67607 3.0 mg/mL, 1 hour after instillation) was 12.0±2.8 mmHg. For the same compound, the “effect on trough IOP value” ([2]; glaucomatous eyes, repeated treatment twice a day, brimonidine tartrate 0.1%, KR-67607 1.5 mg/mL) was “did not significantly affect”, the “maximum decrease of IOP, normal eye” value ([2]; over weeks) was “did not decrease” and the “maximum decrease of IOP, glaucomatous eye” value ([2]; over weeks) was 10.4±2.2 mmHg. The “IOP-decreasing effect in glaucomatous eyes relative to brimonidine” value ([2]; summary) was “smaller than that of brimonidine”, the “Brn3a expression in flat-mounted retinal tissue” value (DBA/2 mice [3]) was “relatively increased” and the GABAergic amacrine cells (DBA/2 mice [3]) was “relatively increased”. The “GFAP expression (activated astrocytes) in optic nerve” value (DBA/2 mice [3]) was “less concentrated”, the “GLT-1 expression in retina” value (DBA/2 mice [3]) was “no quantitative or qualitative difference” and the “degree of retinal ganglion cell death (caspase-3 and 9)” value (DBA/2 mice [3]) was “relatively reduced”. The “glaucomatous histologic features of optic nerve papilla (H&E: cupping, nerve fiber layer thinning)” value (DBA/2 mice [3]) was “alleviated”, the “loss of retinal ganglion cells (H&E)” value (DBA/2 mice [3]) was “less loss” and the “number of Iba-1 positive microglia” value (DBA/2 mice [3]) was “decreased”. The “number of caspase-3, 9 expressing and TUNEL-positive cells in optic nerve papillae” value (DBA/2 mice [3]) was “significantly reduced”.
